Measured values taken from ChEMBL document CHEMBL1201861, “Genomics of Drug Sensitity in Cancer screening data, Wellcome Trust Sanger Institute”.

Assays:
Test in all cases: cells
Type in all cases: functional, cell-based, Homo sapiens
EFO-27 = details: Homo sapiens, EFO-27;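 note: growth inhibition of EFO-27 cells, read out with a cell viability assay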
Description: SANGER: Inhibition of human EFO-27 cell growth in a cell viability assay.

EPLC-272H = details: Homo sapiens, EPLC-272H
Description: SANGER: Inhibition of human EPLC-272H cell growth in a cell viability assay.

HCC1954 = details: Homo sapiens, HCC1954;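 note: growth inhibition of human HCC1954 cells, read out with a cell viability assay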
Description: SANGER: Inhibition of human HCC1954 cell growth in a cell viability assay.

HuO-3N1 = details: Homo sapiens, HuO-3N1;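 note: cell viability readout used to measure how strongly compounds suppress proliferation of human HuO-3N1 cells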
Description: SANGER: Inhibition of human HuO-3N1 cell growth in a cell viability assay.

IGR-1 = details: Homo sapiens, IGR-1;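 note: growth inhibition of human IGR-1 cells, read out with a cell viability assay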
Description: SANGER: Inhibition of human IGR-1 cell growth in a cell viability assay.

LCLC-103H cell line = details: Homo sapiens, LCLC-103H
Description: SANGER: Inhibition of human LCLC-103H cell growth in a cell viability assay.

MES-SA = details: Homo sapiens, MES-SA;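 note: growth inhibition of human MES-SA cells, read out with a cell viability assay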
Description: SANGER: Inhibition of human MES-SA cell growth in a cell viability assay.

MKN-45 = details: Homo sapiens, MKN-45;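 note: growth inhibition of human MKN-45 cells, measured with a cell viability assay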
Description: SANGER: Inhibition of human MKN45 cell growth in a cell viability assay.

NCI-H1048 = details: Homo sapiens, NCI-H1048;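 note: growth inhibition of human NCI-H1048 cells, read out with a cell viability assay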
Description: SANGER: Inhibition of human NCI-H1048 cell growth in a cell viability assay.

NCI-H1666 = details: Homo sapiens, NCI-H1666;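 note: growth inhibition of the cell line, read out with a cell viability assay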
Description: SANGER: Inhibition of human NCI-H1666 cell growth in a cell viability assay.

NCI-H1975 = details: Homo sapiens, NCI-H1975
Description: SANGER: Inhibition of human NCI-H1975 cell growth in a cell viability assay.

NCI-H2052 = details: Homo sapiens, NCI-H2052;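 note: growth inhibition of NCI-H2052 cells, read out with a cell viability assay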
Description: SANGER: Inhibition of human NCI-H2052 cell growth in a cell viability assay.

NCI-H292 = details: Homo sapiens, NCI-H292;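 note: growth inhibition of NCI-H292 cells, read out with a cell viability assay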
Description: SANGER: Inhibition of human NCI-H292 cell growth in a cell viability assay.

OAW-28 = details: Homo sapiens, OAW-28;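 note: growth inhibition of OAW-28 cells, read out with a cell viability assay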
Description: SANGER: Inhibition of human OAW-28 cell growth in a cell viability assay.

OVCAR-3 = details: Homo sapiens, OVCAR-3;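 note: growth inhibition of human OVCAR-3 cells, determined by a cell viability assay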
Description: SANGER: Inhibition of human OVCAR-3 cell growth in a cell viability assay.

OVCAR-8 = details: Homo sapiens, OVCAR-8;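 note: growth inhibition of human OVCAR-8 cells, read out by a cell viability assay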
Description: SANGER: Inhibition of human OVCAR-8 cell growth in a cell viability assay.

RH-18 = details: Homo sapiens, Rh18;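 note: growth inhibition of human RH-18 cells, read out with a cell viability assay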
Description: SANGER: Inhibition of human RH-18 cell growth in a cell viability assay.

SIMA = details: Homo sapiens, SIMA;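 note: growth inhibition of SIMA cells, measured with a cell viability readout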
Description: SANGER: Inhibition of human SIMA cell growth in a cell viability assay.

SK-LU-1 = details: Homo sapiens, SK-LU-1;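 note: cell viability assay measuring growth inhibition of human SK-LU-1 cells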
Description: SANGER: Inhibition of human SK-LU-1 cell growth in a cell viability assay.

SW900 = details: Homo sapiens, SW900;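 note: IC50 is the concentration that inhibits SW900 cell growth, measured by a cell viability assay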
Description: SANGER: Inhibition of human SW900 cell growth in a cell viability assay.

639-V = details: Homo sapiens, 639-V;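 note: growth inhibition of 639-V cells, read out with a cell viability assay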
Description: SANGER: Inhibition of human 639-V cell growth in a cell viability assay.

647-V = details: Homo sapiens, 647-V;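 note: growth inhibition of 647-V cells, read out with a cell viability assay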
Description: SANGER: Inhibition of human 647-V cell growth in a cell viability assay.

8305C = details: Homo sapiens, 8305C
Description: SANGER: Inhibition of human 8305C cell growth in a cell viability assay.

BFTC-905 = details: Homo sapiens, BFTC-905
Description: SANGER: Inhibition of human BFTC-905 cell growth in a cell viability assay.

BPH-1 = details: Homo sapiens, BPH-1;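 note: cell viability assay measuring growth inhibition of human BPH-1 cells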
Description: SANGER: Inhibition of human BPH-1 cell growth in a cell viability assay.

CAL-12T = details: Homo sapiens, CAL-12T;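 note: growth inhibition of human CAL-12T cells, read out with a cell viability assay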
Description: SANGER: Inhibition of human CAL-12T cell growth in a cell viability assay.

CAL-27 = details: Homo sapiens, CAL-27;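 note: Viability-based readout, IC50 reflecting inhibition of CAL-27 cell growth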
Description: SANGER: Inhibition of human CAL-27 cell growth in a cell viability assay.

CAL-51 = details: Homo sapiens, CAL-51;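 note: human CAL-51 cell line, growth inhibition read out via a cell viability assay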
Description: SANGER: Inhibition of human CAL-51 cell growth in a cell viability assay.

COLO-680N = details: Homo sapiens, COLO-680N;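 note: cell viability assay used to measure inhibition of COLO-680N cell growth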
Description: SANGER: Inhibition of human COLO-680N cell growth in a cell viability assay.

DV-90 = details: Homo sapiens, DV-90;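 note: Read-out is a viability assay, with IC50 reflecting the drop in DV-90 cell growth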
Description: SANGER: Inhibition of human DV-90 cell growth in a cell viability assay.

EFE-184 = details: Homo sapiens, EFE-184
Description: SANGER: Inhibition of human EFE-184 cell growth in a cell viability assay.

HCC1143 = details: Homo sapiens, HCC1143;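 note: growth inhibition of human HCC1143 cells, read out with a cell viability assay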
Description: SANGER: Inhibition of human HCC1143 cell growth in a cell viability assay.

KARPAS-422 = details: Homo sapiens, KARPAS-422
Description: SANGER: Inhibition of human KARPAS-422 cell growth in a cell viability assay.

MDA-MB-415 = details: Homo sapiens, MDA-MB-415
NCI-H1734 = details: Homo sapiens, NCI-H1734;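 note: growth inhibition of human NCI-H1734 cells, read out with a cell viability assay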
Description: SANGER: Inhibition of human NCI-H1734 cell growth in a cell viability assay.

NCI-H838 = details: Homo sapiens, NCI-H838;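 note: growth inhibition of human NCI-H838 cells, read out by a cell viability assay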
Description: SANGER: Inhibition of human NCI-H838 cell growth in a cell viability assay.

REH = details: Homo sapiens, REH;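 note: growth inhibition of REH cells determined with a cell viability read-out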
Description: SANGER: Inhibition of human REH cell growth in a cell viability assay.

SK-CO-1 = details: Homo sapiens, SK-CO-1;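 note: growth inhibition of SK-CO-1 cells, determined by a viability readout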
Description: SANGER: Inhibition of human SK-CO-1 cell growth in a cell viability assay.

CA46 = details: Homo sapiens, CA46;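 note: growth inhibition of human CA46 cells, read out by a cell viability assay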
Description: SANGER: Inhibition of human CA46 cell growth in a cell viability assay.

VM-CUB-1 = details: Homo sapiens, VM-CUB-1;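 note: cell viability assay measuring growth inhibition of the human VM-CUB-1 cell line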
Description: SANGER: Inhibition of human VM-CUB-1 cell growth in a cell viability assay.

COLO 205 = details: Homo sapiens, COLO 205
Description: SANGER: Inhibition of human COLO-205 cell growth in a cell viability assay.

ECC10 = details: Homo sapiens, ECC10;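 note: growth inhibition of ECC10 cells, read out by a cell viability assay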
Description: SANGER: Inhibition of human ECC10 cell growth in a cell viability assay.

LU-135 = details: Homo sapiens, LU-135
Description: SANGER: Inhibition of human LU-135 cell growth in a cell viability assay.

NBsusSR = details: Homo sapiens, NBsusSR;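 note: growth inhibition of the human cell line, read out with a cell viability assay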
Description: SANGER: Inhibition of human NBsusSR cell growth in a cell viability assay.

BALL-1 = details: Homo sapiens, BALL-1;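 note: growth inhibition of BALL-1 cells, read out with a cell viability assay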
Description: SANGER: Inhibition of human BALL-1 cell growth in a cell viability assay.

TGBC11TKB = details: Homo sapiens, TGBC11TKB;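 note: growth inhibition of human TGBC11TKB cells, measured by a cell viability assay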
Description: SANGER: Inhibition of human TGBC11TKB cell growth in a cell viability assay.

TI-73 = details: Homo sapiens, TI-73;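 note: cell viability assay measuring how much compounds suppress growth of the cultured cell line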
Description: SANGER: Inhibition of human TI-73 cell growth in a cell viability assay.

SMILES | IC50 (EFO-27) [µM] | IC50 (HCC1954) [µM] | IC50 (HuO-3N1) [µM] | IC50 (IGR-1) [µM] | IC50 (LCLC-103H cell line) [µM] | IC50 (MKN-45) [µM] | IC50 (NCI-H2052) [µM] | IC50 (NCI-H292) [µM] | IC50 (OAW-28) [µM] | IC50 (OVCAR-3) [µM] | IC50 (OVCAR-8) [µM] | IC50 (SK-LU-1) [µM] | IC50 (639-V) [µM] | IC50 (647-V) [µM] | IC50 (8305C) [µM] | IC50 (BFTC-905) [µM] | IC50 (BPH-1) [µM] | IC50 (CAL-12T) [µM] | IC50 (CAL-27) [µM] | IC50 (CAL-51) [µM] | other results
CC(C)c1ccccc1Cc1cc(C(=O)Nc2ccc(S(=O)(=O)c3ccccc3C(C)(C)C)cc2)c(O)c(O)c1O | 0.117 | 0.894 | 2.03 | 0.301 | 0.21 | 0.338 | 1.39 | 0.36 | 0.294 | 0.379 | 0.471 | 0.711 | 0.521 | 0.0884 | 3.91 | 0.708 | 0.286 | 1.12 | 0.136 | 0.349 | IC50 (EPLC-272H): 0.703 µM; IC50 (MES-SA): 1.11 µM; IC50 (NCI-H1048): 0.214 µM; IC50 (NCI-H1666): 0.378 µM; IC50 (NCI-H1975): 1.38 µM; IC50 (RH-18): 1.07 µM; IC50 (SIMA): 0.664 µM; IC50 (SW900): 2.77 µM; IC50 (COLO-680N): 1.43 µM
O=C(O)c1ccc(-c2c[nH]c3ncc(-c4ccccc4)cc23)cc1C1CCCC1 [GSK-650394] | 15.4 | > 16 | > 16 | 4.23 | 3.91 | > 16 | > 16 | > 16 | > 16 | > 16 | 11.3 | 3.97 | 5.17 | > 16 | > 16 | 0.785 | > 16 | 2.71 | 5.33 | 5.36 | IC50 (DV-90): > 16 µM; IC50 (EFE-184): > 16 µM; IC50 (HCC1143): > 16 µM; IC50 (KARPAS-422): > 16 µM; IC50 (MDA-MB-415): > 16 µM; IC50 (MES-SA): 5.56 µM; IC50 (NCI-H1734): > 16 µM; IC50 (NCI-H838): > 16 µM; IC50 (REH): > 16 µM; IC50 (SIMA): > 16 µM; IC50 (SK-CO-1): > 16 µM; IC50 (CA46): > 16 µM; IC50 (VM-CUB-1): > 16 µM; IC50 (COLO 205): > 16 µM; IC50 (COLO-680N): > 16 µM
Nc1cccc2c1CN(C1CCC(=O)NC1=O)C2=O (centres undefined) [LENALIDOMIDE] | > 5 | > 5 | > 5 | > 5 | > 5 | > 5 | > 5 | > 5 | > 5 | > 5 | > 5 | > 5 | > 5 | > 5 | > 5 | > 5 | > 5 | > 5 | > 5 | > 5 | IC50 (ECC10): > 5 µM; IC50 (EPLC-272H): > 5 µM; IC50 (LU-135): > 5 µM; IC50 (MDA-MB-415): > 5 µM; IC50 (NBsusSR): > 5 µM; IC50 (NCI-H1048): > 5 µM; IC50 (NCI-H1666): > 5 µM; IC50 (NCI-H1975): > 5 µM; IC50 (RH-18): > 5 µM; IC50 (SW900): > 5 µM; IC50 (BALL-1): > 5 µM; IC50 (TGBC11TKB): > 5 µM; IC50 (TI-73): > 5 µM; IC50 (VM-CUB-1): > 5 µM; IC50 (COLO-680N): > 5 µM
